This is an account of results in patent publication US20190151241A1, “STABLE PHARMACEUTICAL INJECTABLE COMPOSITIONS OF MICAFUNGIN” (CADILA HEALTHCARE LIMITED, priority 2017, published 2019).

Starred links: 1 amine or outer side, 2 acyl side, 3 side chain; linkers in the order of their positions; H or OH if unused. Positions of bridges follow the written chain, without caps; N, C: chain ends. Non-standard residues stand in square brackets, D forms with d. Residues, ends and D or L forms follow the SMILES beside them. ξ: configuration not given here. *: point of attachment. hTyr(3S-OH,4S-OH,3'-OSO3H) = N[C@H](C(=O)O)[C@H](O)[C@@H](O)c1ccc(O)c(OS(=O)(=O)O)c1; Orn(4R-OH,5R-OH) = O=C([C@H](C[C@@H](O)[C@@H](O)N[*:3])N[*:1])[*:2]; Pro(3S-OH,4S-Me) = C[C@H]1CN[C@H](C(=O)O)[C@H]1O; X1 = CCCCCOc1ccc(-c2cc(-c3ccc(C(=O)*)cc3)no2)cc1; Gln(3R-OH) = NC(=O)C[C@@H](O)[C@H](N)C(=O)O; Hyp = O=C(O)[C@@H]1C[C@@H](O)CN1; ξThr(3R) = C[C@@H](O)C(N)C(=O)O

The data set can be described thus: Inventors' finding on stability of micafungin in liquid state. The data set is classed as physicochemical.

Regarding `CCCCCOc1ccc(-c2cc(-c3ccc(C(=O)N[C@H]4C[C@@H](O)[C@@H](O)NC(=O)[C@@H]5[C@@H](O)[C@@H](C)CN5C(=O)[C@H]([C@H](O)CC(N)=O)NC(=O)[C@H]([C@H](O)[C@@H](O)c5ccc(O)c(OS(=O)(=O)O)c5)NC(=O)[C@@H]5C[C@@H](O)CN5C(=O)C([C@@H](C)O)NC4=O)cc3)no2)cc1` (stereo partly drawn) [micafungin, Micafungin] (X1-[Orn(4R-OH,5R-OH)][ξThr(3R)][Hyp][hTyr(3S-OH,4S-OH,3'-OSO3H)][Gln(3R-OH)][Pro(3S-OH,4S-Me)]; lactam 1-C), the “Stability in liquid state” value was “heat sensitive and shows temperature dependant degradation in liquid state”.
